Laboratory results as given in patent publication US6759396B1, “Compositions based on a synergistic mixture of at least one VDR ligand and a retinoid” (Centre International de Recherches Dermatalogiques Galderma …, priority 1995, dated 2004).

Columns and labels:
keratinocytes = assay: keratinocyte proliferation, XTT assay (Cell proliferation kit II); type: cell-based
[1] = system: RARγ receptors relative to RARα receptors; assay: dissociation constants for RAR receptors (standard tests from cited references); type: binding, human; settings: selectivity for RARγ relative to RARα
Method: The dissociation constants are determined by means of tests which are standard to those skilled in the art. These tests are described in particular in the following references: (1) “Selective Synthetic Ligands for Nuclear Retinoic Acid Receptor Subtypes” in RETINOIDS, Progress in Research and Clinical Applications, Chapter 19 (pp 261-267), Marcel Dekker Inc., published by Maria A. Livrea and Lester Packer; (2) “Synthetic Retinoids: Receptor Selectivity and Biological Activity” in Pharmacol. Skin, Basle, Karger, 1993, Volume 5, pp. 117-127; (3) “Selective Synthetic Ligands for Human Nuclear Retinoic Acid Receptors” in Skin Pharmacology, 1992, Vol. 5, pp. 57-65; (4) “Identification of Synthetic Retinoids with Selectivity for Human Nuclear Retinoic Acid Receptor-γ” in Biochemical and Biophysical Research Communications, Vol. 186, No. 2, July 1992, pp. 977-983; (5) “Selective High Affinity RAR-α or RAR-β Retinoic Acid Receptor Ligands” in Mol. Pharmacol., Vol. 40, pp. 556-562.
In an advantageous manner, the retinoids which are selective for the RARγ receptors relative to the RARα receptors have an RARα/RARγ dissociation constant ratio greater than or equal to 8.

Row | RARα/RARγ dissociation constant ratio [1] | SMILES | synergism of inhibition on keratinocyte proliferation (keratinocytes; in combination with 1,25-dihydroxyvitamin D3, identical conditions) | inhibition on keratinocyte proliferation (keratinocytes; in combination with 1,25-dihydroxyvitamin D3, 4 days culture, FIGS. 1 and 2)
1 |  | CC1=C(/C=C/C(C)=C/C=C/C(C)=C/C(=O)O)C(C)(C)CCC1 [all-trans retinoic acid, reference compound] | No synergism | 
2 | 84.4 | COc1ccc(-c2ccc3cc(C(=O)O)ccc3c2)cc1C12CC3CC(CC(C3)C1)C2 [6-[3-(1-adamantyl)-4-methoxyphenyl]-2-naphthoic acid] |  | 
3 | 8.5 | O=C(O)c1ccc2cc(-c3ccc(O)c(C45CC6CC(CC(C6)C4)C5)c3)ccc2c1 [compound 1, 6-[3-(1-adamantyl)-4-hydroxyphenyl]-2-naphthoic acid] |  | very good inhibition
4 | 36.6 | CC1(C)CCC(C)(C)c2cc(C(O)C#Cc3ccc(C(=O)O)c(O)c3)ccc21 (centres unmarked) [2-hydroxy-4-[3-hydroxy-3-(5,6,7,8-tetrahydro-5,5,8,8-tetramethyl-2-naphthyl)-1-propynyl]benzoic acid] |  | 
